Experimental data reported in patent US6355443B1, “4-(4-hydroxystyryl) pyridine-containing substrates for an analyte dependent enzyme activation system” (priority 1999, dated 2002).

Assays:
[1] = target: T1, Horseradish peroxidase (HRP) conjugated wheat germ agglutinin (Armoracia rusticana, UniProt P00433); test: Sensitive HRP localization using a 4-(4-hydroxystyryl) pyridine containing compound; settings: sections of mouse intestine; for fluorescence labeling of tissue sections after HRP-catalyzed deposition: HRP-conjugated wheat germ agglutinin 0.5 μg/ml, substrate 100 μg/ml, 10 min, 360 nm excitation/>400 nm emission
T1 construct: purchased Sigma; St. Louis, Mo
T1 sequence (P00433 31-338 limits assumed): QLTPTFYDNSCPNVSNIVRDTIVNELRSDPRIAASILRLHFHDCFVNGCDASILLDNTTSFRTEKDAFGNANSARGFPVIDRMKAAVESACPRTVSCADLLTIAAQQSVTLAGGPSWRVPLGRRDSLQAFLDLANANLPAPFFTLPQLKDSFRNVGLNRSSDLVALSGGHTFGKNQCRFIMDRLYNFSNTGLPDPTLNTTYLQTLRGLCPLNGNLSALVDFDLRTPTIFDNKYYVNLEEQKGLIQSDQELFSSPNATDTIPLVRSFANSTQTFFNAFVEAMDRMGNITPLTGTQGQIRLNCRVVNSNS
Experimental: Sections of paraffin-embedded mouse intestine were deparaffinized and non-specific binding sites blocked by treatment for thirty minutes in PBS-blocking buffer (PBS-BB; 0.1M phosphate buffered saline, pH 7.2; 1.0% bovine serum albumin, 0.2% non-fat powdered milk, and 0.3% Triton X-100). Horseradish peroxidase (HRP) conjugated wheat germ agglutinin (Sigma; St. Louis, Mo.) at a concentration of 0.5 μg/ml in PBS-BB was incubated on sections for one hour at room temperature. Control sections were incubated in PBS-BB alone. Sections were then washed in PBS (three X for five minutes each wash) and reacted for ten minutes at room temperature in a solution containing 4-(4-hydroxystyryl) pyridinium propylsulfonate (HPPS) (Molecular Biosciences; Boulder, Colo.) at 100 μg/ml in TSA Amplification Diluent, (NEN Life Science Products, Inc.; Boston, Mass.). Sections were then washed in PBS (three X for five minutes each wash), mounted in PBS:Glycerol (1:1) and coverslipped. Sections were viewed with a Zeiss Axioskop microscope equipped with epifluorescence and a filter set with excitation/emission characteristics of 360 nm peak excitation/>400 nm long pass emission. Photomicrographs were taken using a Zeiss MC100 camera system.

[2] = target: T1, Horseradish peroxidase (HRP) conjugated wheat germ agglutinin; test: Stability of deposited fluorescent reaction product in aqueous vs non-aqueous mounting medium
Experimental: Sections of paraffin-embedded mouse intestine were deparaffinized and non-specific binding sites were blocked by treatment for thirty minutes in PBS-BB. HRP conjugated wheat germ agglutinin (Sigma), at a concentration of 0.5 μg/ml in PBS-BB, was incubated on sections for one hour at room temperature. Sections were then washed in PBS (three X for five minutes each wash) and were reacted for ten minutes at room temperature in a solution of 4-(4-hydroxystyryl) methylpyridinium tosylate (HMPT) (Molecular Biosciences) at 100 μg/ml in TSA Amplification Diluent (NEN Life Science Products, Inc.). Sections were then washed in PBS (three X for five minutes each wash) and either mounted in PBS:Glycerol (1:1) or dehydrated in graded ethanol solutions (0%, 70%, 95%, 100%, 100% three minutes each) and xylene (two X for three minutes each) mounted in Permount (a non-aqueous mounting medium; Fisher Scientific, Pittsburgh, Pa.) and coverslipped. The fluorescent signal intensity of slides mounted in aqueous (PBS:Glycerol) or non-aqueous (Permount) media was compared using a Zeiss Axioskop microscope equipped with epifluorescence and a 360 nm excitation/>400 nm emission filter set. Photomicrographs were taken using a Zeiss MC100 camera system and standard two second exposures.

Row | Molecule | concentration of conjugated wheat germ agglutinin used/required for wheat germ agglutinin localization [1] | fluorescence labeling of tissue sections after HRP-catalyzed deposition [1] | fluorescence labeling of tissue sections after HRP-catalyzed deposition ([1]; listed as EPPS) | background signal / signal/noise ratio when mounted in non-aqueous media ([2]; Permount, non-aqueous) | localization of wheat germ agglutinin reactivity ([2]; aqueous and non-aqueous medium) | fluorescence in aqueous solution ([2]; section of mouse intestine, aqueous (FIG. 2A)) | reaction product fluorescence in non-aqueous medium ([2]; section of mouse intestine, non-aqueous (FIG. 2B)) | fluorescence intensity of reaction product in aqueous versus non-aqueous medium ([2]; sections of mouse intestine, PBS:Glycerol (aqueous) vs Permount (non-aqueous), two second exposures)
1 | 4-(4-hydroxystyryl) pyridinium propylsulfonate [HPPS] | 0.5 µg/mL | intense HPPS fluorescence was localized to intestinal goblet cells | intense EPPS fluorescence localized to intestinal goblet cells |  |  |  |  | 
2 | C[n+]1ccc(C=Cc2ccc(O)cc2)cc1.Cc1ccc(S(=O)(=O)[O-])cc1 [HMPT, 4-(4-hydroxystyryl) methylpyridinium tosylate] |  |  |  | background signal is reduced resulting in a better signal/noise ratio | Strong wheat germ agglutinin reactivity was localized to the intestinal epithelium under both conditions | bright fluorescence in aqueous solution | bright reaction product in a non-aqueous medium | equally bright in aqueous (FIG. 2A) and non-aqueous (FIG. 2B) medium
